Experiments:
[1] = 101.33 kPa, Liquid; for speed of sound: Sing-around technique in a fixed-path interferometer; for mass density: Vibrating tube method
[2] = xn = mol fraction of the nth substance listed; conditions: 81.5 kPa, Liquid, x2 = 0; for speed of sound: Sing-around technique in a fixed-path interferometer; for mass density: Vibrating tube method

CCn1cc[n+](C)c1.F[B-](F)(F)F [1-ethyl-3-methylimidazolium tetrafluoroborate]
[1]
Conditions | mass density [kg/m3] | speed of sound [m/s]
293.15 K | 1285.95 | 1640.4
298.15 K | 1282.14 | 1628.4
303.15 K | 1278.34 | 1616
308.15 K | 1274.55 | 1604.9
313.15 K | 1270.78 | 1593.4
318.15 K | 1267.03 | 1582
323.15 K | 1263.3 | 1570.6
328.15 K | 1259.58 | 1559.4
333.15 K | 1255.88 | 1548.2
338.15 K | 1252.2 | 1537.2
343.15 K | 1248.54 | 1526.2

CC(=O)N(C)C [N,N-dimethylethanamide]
[1]
Conditions | mass density [kg/m3] | speed of sound [m/s]
293.15 K | 941.341 | 1477.6
298.15 K | 936.729 | 1457.4
303.15 K | 932.112 | 1437.4
308.15 K | 927.492 | 1417.5
313.15 K | 922.863 | 1397.8
318.15 K | 918.23 | 1378.2
323.15 K | 913.586 | 1358.6
328.15 K | 908.932 | 1339.2
333.15 K | 904.268 | 1319.9
338.15 K | 899.595 | 1300.8
343.15 K | 894.909 | 1281.7

CC(=O)N(C)C [N,N-dimethylethanamide] + CCn1cc[n+](C)c1.F[B-](F)(F)F
[2]
Conditions | mass density [kg/m3] | speed of sound [m/s]
293.15 K | 941.341 | 1477.6
298.15 K | 936.729 | 1457.4
303.15 K | 932.112 | 1437.4
308.15 K | 927.492 | 1417.5
313.15 K | 922.863 | 1397.8
318.15 K | 918.23 | 1378.2
323.15 K | 913.586 | 1358.6
328.15 K | 908.932 | 1339.2
333.15 K | 904.268 | 1319.9
338.15 K | 899.595 | 1300.8
343.15 K | 894.909 | 1281.7

CN(C)C=O [dimethylformamide]
[1]
Conditions | mass density [kg/m3] | speed of sound [m/s]
293.15 K | 948.743 | 1477.1
298.15 K | 943.978 | 1457.6
303.15 K | 939.201 | 1438
308.15 K | 934.417 | 1418.7
313.15 K | 929.62 | 1399.3
318.15 K | 924.812 | 1380
323.15 K | 919.993 | 1360.9
328.15 K | 915.159 | 1341.7
333.15 K | 910.312 | 1322.7
338.15 K | 905.445 | 1303.7
343.15 K | 900.565 | 1284.8

CN(C)C=O [dimethylformamide] + CCn1cc[n+](C)c1.F[B-](F)(F)F
[2]
Conditions | mass density [kg/m3] | speed of sound [m/s]
293.15 K | 948.743 | 1477.1
298.15 K | 943.978 | 1457.6
303.15 K | 939.201 | 1438
308.15 K | 934.417 | 1418.7
313.15 K | 929.62 | 1399.3
318.15 K | 924.812 | 1380
323.15 K | 919.993 | 1360.9
328.15 K | 915.159 | 1341.7
333.15 K | 910.312 | 1322.7
338.15 K | 905.445 | 1303.7
343.15 K | 900.565 | 1284.8

From the NIST ThermoML archive (doi:10.1021/acs.jced.6b00496)
